Results on 80 compounds are retold here after the Kinase Knowledgebase extract (Sharma et al. 2016).

SMILES strings stand for the structures.

In general, IC50 refers to the concentration needed to halve the response being measured.

The target in this test is MAPK14;MAPK11;MAPK12 (human) (UniProt Q16539). Description: Inhibition of p38 Kinase Activity.
Regarding `CONC(=O)c1ccc(C)c(Nc2nc(NCc3ccccc3)nc(N(C)CC(C)(C)C)n2)c1`, the IC50 was less than 1000 nM.

`c1nc2ccc(Nc3nc(N4CCNCC4)nc(N4CCC5CCCCC5C4)n3)cc2s1` (stereo not given) registered an IC50 of less than 10000 nM.

`CC(CNc1nc(Nc2ccc3ncsc3c2)nc(N2CCN(C(=O)c3ccccc3)CC2)n1)c1ccccc1` (stereo not given) showed an IC50 of less than 10000 nM.

With `CCONC(=O)c1ccc(C)c(Nc2nc(N(C)CC(C)(C)C)cc(N3CCCN(C)CC3)n2)c1`, the IC50 was less than 1000 nM.

For the compound `COc1ccc(CN2CCC(Nc3nc(Nc4cc(C(N)=O)ccc4C)nc(N(C)CC(C)C)n3)C2)cc1` (stereo not given), the IC50 is less than 1000 nM.

`CCCCN(C)c1nc(Nc2cc(C(N)=O)ccc2C)nc(N[C@H]2CCNC2)n1` displayed an IC50 of less than 1000 nM.

Regarding `Cc1ccc(C(N)=O)cc1Nc1nc(NC2CCCc3ccccc32)nc(N[C@@H]2CCNC2)n1` (stereo not given in full), the IC50 was less than 1000 nM.

Consider `CC(C)c1nc(NC[C@@H]2CC[C@@H]3C[C@H]2C3(C)C)nc(Nc2ccc3ncsc3c2)n1`, for which the concentration for half-maximal inhibition (IC50) is less than 10000 nM.

As for `Clc1cccc(Nc2nc(Cl)nc(Nc3ccc4ncsc4c3)n2)c1`, the IC50 was less than 10000 nM.

`CCCNC(=O)c1ccc(C)c(Nc2nc(O[C@H]3CCNC3)nc(N(C)CC(C)(C)C)n2)c1` displayed an IC50 of less than 1000 nM.

Take `Cc1ccc(C(N)=O)cc1Nc1nc(N[C@@H]2CCN(C(C)C(F)(F)F)C2)nc(N(C)CC(C)(C)C)n1` (stereo not given in full): the IC50 was less than 1000 nM.

In turn, `CC(CNc1nc(Nc2ccc3ncsc3c2)nc(N2CC3CC2CN3S(=O)(=O)N(C)C)n1)c1ccccc1` (stereo not given) registered a half-inhibitory concentration (IC50) of less than 10000 nM.

Turning to `Cc1ccc(C(N)=O)cc1Nc1nc(NC2CCN(Cc3ccccc3)C2)nc(N(C)CC(C)C)n1` (stereo not given), the IC50 is less than 1000 nM.

The compound `Cc1ccc(C(N)=O)cc1Nc1nc(NCC2CCNCC2)nc(NC2CCCC2)n1` registered an IC50 of less than 1000 nM.

As to `Cc1ccc(C(=O)NC(C)C)cc1Nc1nc(N[C@H]2CCNC2)nc(N(C)CC(C)C)n1`, the IC50 was less than 1000 nM.

In turn, `Cc1ccc(-c2nn(C)c(=O)[nH]2)cc1Nc1nc(N(C)CC(C)(C)C)nc(N2CCCN(C)CC2)n1` yielded an IC50 of less than 1000 nM.

On to `CN(CC1CCC2CC1C2(C)C)c1nc(Nc2ccc3ncsc3c2)nc(N2CCN(C(=O)OC(C)(C)C)CC2)n1` (stereo not given), for which the IC50 was less than 10000 nM.

In the case of `CONC(=O)c1ccc(C)c(Nc2nc(N)nc(N(C)CC(C)(C)C)n2)c1`, the IC50 is less than 1000 nM.

`Cc1ccc(C(N)=O)cc1Nc1nc(N[C@H]2CN[C@@H](CO)C2)nc(N(C)CC(C)(C)C)n1` yielded an IC50 of less than 1000 nM.

Regarding `CNc1nc(Nc2ccc3ncsc3c2)nc(N[C@H](C)C2CCCCC2)n1`, the concentration for half-maximal inhibition (IC50) is less than 10000 nM.

In turn, `Cc1ccc(C(N)=O)cc1Nc1nc(N[C@H]2CCNC2)nc(N(C)CC(C)(C)C)n1` came in with an IC50 of less than 1000 nM.

With `Cc1ccc(C(N)=O)cc1Nc1nc(NCC(C)C)nc(N[C@H]2CCNC2)n1`, the IC50 was less than 1000 nM.

With `Cc1ccc(C(N)=O)cc1Nc1nc(N[C@H]2CCN(C3CCC3)C2)nc(N(C)CC(C)(C)C)n1`, the IC50 is less than 1000 nM.

Turning to `Cc1ccc(C(N)=O)cc1Nc1nc(NC2CCN(Cc3ccccn3)C2)nc(N(C)CC(C)C)n1` (stereo not given), the 50% inhibitory concentration (IC50) was less than 1000 nM.

With `CCNC(=O)c1ccc(C)c(Nc2nc(N[C@H]3CCNC3)nc(N(C)CC(C)(C)C)n2)c1`, the IC50 is less than 1000 nM.

`Cc1cc2c(cc1Nc1nc(N[C@H]3CCNC3)nc(N(C)CC(C)(C)C)n1)C(=O)NC2` registered an IC50 of less than 1000 nM.

Turning to `Cc1ccc2ncn(-c3nc(NCCOC(C)C)cc(N(C)C)n3)c2c1`, the IC50 is less than 10000 nM.

In turn, `CNC(=O)c1ccc(C)c(Nc2nc(N[C@H]3CCN(Cc4ccccc4)C3)nc(N(C)CC(C)C)n2)c1` displayed a half-maximal inhibitory concentration (IC50) of less than 1000 nM.

As to `CC(C)c1nc(Cl)nc(Nc2ccc3ncsc3c2)n1`, the IC50 is less than 10000 nM.

With `Cc1ccc(C(N)=O)cc1Nc1nc(N[C@H]2CCN(Cc3cccc4c3OCO4)C2)nc(N(C)CC(C)C)n1`, the IC50 is less than 1000 nM.

For `Cc1ccc(C(N)=O)cc1Nc1nc(NCC(C)(C)C)nc(N[C@H]2CCNC2)n1`, the 50% inhibitory concentration (IC50) is less than 1000 nM.

The compound `Cc1ccc(C(N)=O)cc1Nc1nc(N[C@H]2CCNC2)nc(OCC(C)(C)C)n1` came in with an IC50 of less than 1000 nM.

Regarding `CCC(CNc1nc(Cl)nc(Nc2ccc3ncsc3c2)n1)c1ccccc1` (stereo not given), the IC50 was less than 10000 nM.

As for `CNC(=O)c1ccc(C)c(Nc2nc(N[C@H]3CCN(Cc4ccccc4OC)C3)nc(N(C)CC(C)C)n2)c1`, the IC50 was less than 1000 nM.

Consider `Cc1c(Nc2nc(NCC(C)c3ccccc3)nc(N3CCNCC3)n2)ccc2ncsc12` (stereo not given), for which the IC50 was less than 10000 nM.

`Cc1ccc(C(N)=O)cc1Nc1nc(NCC2(c3ccccc3)CC2)nc(N[C@H]2CCNC2)n1` registered an IC50 of less than 1000 nM.

In turn, `O=S(=O)(Nc1ncccn1)c1ccc(Nc2nc(Cl)nc(NCCc3ccccc3)n2)cc1` displayed an IC50 of less than 10000 nM.

For `CONC(=O)c1ccc(C)c(Nc2nc(N[C@H]3CCNC3)cc(N(C)CC(C)(C)C)n2)c1`, the IC50 is less than 1000 nM.

Turning to `Cc1ccc(COC(=O)C(F)(F)F)cc1Nc1nc(N[C@H]2CCNC2)nc(N(C)CC(C)C)n1`, the IC50 is less than 1000 nM.

As to `Cc1ccc(C(N)=O)cc1Nc1nc(N[C@H]2CCN(C3CCC3)C2)nc(N(C)CC(C)C)n1`, the IC50 was less than 1000 nM.

As for `Cc1c(Cl)cc(C(N)=O)cc1Nc1nc(N[C@H]2CCNC2)nc(N(C)CC(C)(C)C)n1`, the IC50 was less than 1000 nM.

With `Cc1ccc(C(N)=O)cc1Nc1nc(NC2Cc3ccccc3C2)nc(N[C@@H]2CCNC2)n1`, the IC50 was less than 1000 nM.

As to `Cc1ccc(C(N)=O)cc1Nc1nc(N[C@H]2CCN(CC(C)(C)C)C2)nc(N(C)CC(C)(C)C)n1`, the IC50 was less than 1000 nM.

As to `CNC(=O)C1CCN(c2nc(NC[C@@H]3CC[C@@H]4C[C@H]3C4(C)C)nc(Nc3ccc4ncsc4c3)n2)CC1`, the IC50 was less than 10000 nM.

`NC(=O)CNc1nc(NCCc2ccccc2)nc(Nc2ccc3ncsc3c2)n1` registered an IC50 of less than 10000 nM.

Compound `CC1(C)[C@H]2CCC(COc3nc(Cl)nc(Nc4ccc5ncsc5c4)n3)[C@@H]1C2` (stereo not given in full) gave a concentration for half-maximal inhibition (IC50) of less than 10000 nM.

As to `CNC(=O)c1ccc(C(F)(F)F)c(Nc2nc(N[C@H]3CCNC3)nc(N(C)CC(C)(C)C)n2)c1`, the IC50 was less than 1000 nM.

The compound `CCCCNc1nc(Nc2cc(C(N)=O)ccc2C)nc(N[C@H]2CCNC2)n1` returned a 50% inhibitory concentration (IC50) of less than 1000 nM.

With `Cc1ccc(C(N)=O)cc1Nc1nc(N[C@H]2CCN(C(C)c3cccnc3)C2)nc(N(C)CC(C)C)n1` (stereo not given in full), the IC50 is less than 1000 nM.

On to `CC1(C)[C@H]2CC[C@@H](CNc3nc(Cl)nc(Nc4ccc5ncsc5c4)n3)[C@@H]1C2`, for which the IC50 is less than 10000 nM.

`CNCCN(C)c1nc(NCc2ccc(Cl)c(Cl)c2)nc(Nc2ccc3ncsc3c2)n1`: the IC50 was less than 10000 nM.

Consider `CC(C)c1nc(Nc2ccc3ncsc3c2)nc(N2CCNCC2)n1`, for which the IC50 was less than 10000 nM.

Compound `Cc1ccc(C(N)=O)cc1Nc1nc(N[C@H]2CCCC[C@H]2N)nc(N(C)CC(C)C)n1` yielded an IC50 of less than 1000 nM.

`CNC(=O)c1ccc(C)c(Nc2nc(NC[C@H]3CCCN3)nc(N(C)CC(C)(C)C)n2)c1`: the IC50 was less than 1000 nM.

As for `Nc1nc(NCCc2ccccc2)nc(Nc2ccc(S(=O)(=O)N(C=O)c3ncccn3)cc2)n1`, the IC50 is less than 10000 nM.

`Cc1ccc(C(N)=O)cc1Nc1nc(NC2CCCC2)nc(N[C@@H]2CCNC2)n1` came in with an IC50 of less than 1000 nM.

With `CC(CNc1nc(Nc2ccc3ncsc3c2)nc(N2CCN(C(=O)c3ccco3)CC2)n1)c1ccccc1` (stereo not given), the IC50 was less than 10000 nM.

`Cc1ccc(C(N)=O)cc1Nc1nc(NCC2CCNCC2)nc(NC(C)C2CCCCC2)n1` (stereo not given): the IC50 was less than 1000 nM.

`Cc1ccc(C(N)=O)cc1Nc1nc(N[C@H]2CCN(Cc3ccccc3)C2)nc(N(C)CC(C)C)n1`: the IC50 was less than 1000 nM.

Consider `CONC(=O)c1ccc(C)c(Nc2nc(NCc3ccccn3)nc(N(C)CC(C)(C)C)n2)c1`, for which the IC50 was less than 1000 nM.

Regarding `Cc1ccc(C(N)=O)cc1Nc1nc(N[C@H]2CCNC2)nc(N(C)CC(C)c2ccc(Cl)cc2)n1` (stereo not given in full), the IC50 is less than 1000 nM.

For `COc1ccc(C(=O)N(C)CCCN(C)c2nc(NCC(C)c3ccccc3)nc(Nc3ccc4ncsc4c3)n2)cc1` (stereo not given), the IC50 was less than 10000 nM.

`COc1ccccc1CN1CCC(Nc2nc(Nc3cc(C(N)=O)ccc3C)nc(N(C)CC(C)C)n2)C1` (stereo not given) gave an IC50 of less than 1000 nM.

In turn, `Clc1nc(Nc2ccc3ncsc3c2)nc(N2CCc3ccccc3C2)n1` came in with an IC50 of less than 10000 nM.

Consider `Cc1ccc2ncn(-c3nc(F)cc(NCCOC(C)C)n3)c2c1`, for which the IC50 is less than 10000 nM.

In the case of `Cc1ccccc1CN1CC[C@H](Nc2nc(Nc3cc(C(N)=O)ccc3C)nc(N(C)CC(C)C)n2)C1`, the IC50 is less than 1000 nM.

On to `Cc1ccc(C(N)=O)cc1Oc1nc(NCc2ccccn2)nc(N(C)CC(C)(C)C)n1`, for which the IC50 was less than 30000 nM.

In turn, `Cc1ccc(C(N)=O)cc1Nc1nc(NCc2cccc3ccccc23)nc(N[C@@H]2CCNC2)n1` came in with a half-maximal inhibitory concentration (IC50) of less than 1000 nM.

Consider `CCNC(=O)N1CCN(c2nc(NCC(C)c3ccccc3)nc(Nc3ccc4ncsc4c3)n2)CC1` (stereo not given), for which the IC50 is less than 10000 nM.

On to `Cc1ccc(C(N)=O)cc1Nc1nc(NC2CCCN(C(C)C)C2)nc(N(C)CC(C)C)n1` (stereo not given), for which the IC50 is less than 1000 nM.

Turning to `CONC(=O)c1ccc(C)c(Nc2nc(NCCN3CCOCC3)nc(N(C)CC(C)(C)C)n2)c1`, the IC50 is less than 1000 nM.

Compound `c1nc2ccc(Nc3nc(CCC4CCCCC4)nc(N4CCNCC4)n3)cc2s1` came in with an IC50 of less than 10000 nM.

In turn, `CC1(C)[C@H]2CC[C@@H](CNc3nc(N4CCCNCC4)nc(N4CCc5ccc([N+](=O)[O-])cc54)n3)[C@@H]1C2` had an IC50 of less than 1000 nM.

On to `Cc1ccc(C(N)=O)cc1Nc1nc(NC[C@@H]2CC[C@H]3C[C@H]2C3(C)C)nc(NC2CCNCC2)n1`, for which the IC50 was less than 1000 nM.

Compound `Cc1ccc(C(N)=O)cc1Nc1nc(O)nc(N[C@H]2CCNC2)n1` gave an IC50 of less than 1000 nM.

The compound `Cc1ccc(C(N)=O)cc1Nc1nc(NCC2(C)CCCC2)nc(N[C@H]2CCNC2)n1` returned an IC50 of less than 1000 nM.

With `CCCCNC(=O)c1ccc(C)c(Nc2nc(N[C@H]3CCNC3)nc(N(C)CC(C)(C)C)n2)c1`, the IC50 is less than 1000 nM.

Take `Cc1ccc(C(=O)Nc2ccccc2)cc1Nc1nc(N[C@H]2CCNC2)nc(N(C)CC(C)C)n1`: the IC50 was less than 1000 nM.

`CCONC(=O)c1ccc(C)c(Nc2nc(NC)nc(N(C)CC(C)(C)C)n2)c1`: the IC50 is less than 1000 nM.

For `CCCN(C)c1nc(Nc2cc(C(N)=O)ccc2C)nc(N[C@H]2CCNC2)n1`, the half-inhibitory concentration (IC50) was less than 1000 nM.
